By EC50 is commonly meant the midpoint of the concentration-response curve. One may read the IC50 as the concentration that inhibits the measured activity by half. A higher IC50 goes with weaker potency. In general, Ki refers to the equilibrium dissociation constant of an inhibitor or competing ligand from its target.

Read-outs that look alike come from different tables or passages of the source.

Data on five compounds can be found in paper PMC5823469, “Unique pharmacological properties of serotoninergic G-protein coupled receptors from cestodes” (PLoS Neglected Tropical Diseases, 2018).

For data set [1], the target named is 5-HT7Egran1 (Echinococcus canadensis, UniProt A0A482LU10). Description: cell-based. As to conditions: for pharmacological behaviour (agonist/antagonist, efficacy) in cAMP assay: 5-HT7Egran1. Format: cell-based, Echinococcus granulosus. As for the experimental part: (§1) HEK-293 cells (ATCC CRL-1573.3) were cultured in growth media [DMEM (Gibco), 10% heat inactivated fetal bovine serum (Gibco), penicillin (100units/mL), streptomycin (100μg/mL) and L-glutamine (290μg/mL)] and used for assays between passages 5 and 25. For cestode GPCR heterologous expression assays, cells were transfected (Lipofectamine 2000, Invitrogen) at 80% confluency approximately 16 hours after seeding within T-25 culture flasks with a 1:1 ratio of human codon optimized cestode GPCR cDNA (subcloned into a pcDNA3.1(-) mammalian expression vector) and cDNA encoding the pGloSensor 22-F plasmid (Promega). The following day, cells were trypsinized, centrifuged (300g/5min), resuspended in DMEM supplemented with 1% dialyzed FBS (Gibco) and plated in 96 well, solid white plates (Corning, cat # 3917). After overnight culture to allow adherence, media was exchanged for assay buffer (HBSS supplemented with 0.1% BSA, 20mM HEPES (pH 7.4), and GloSensor reagent (Promega). cAMP-luminescence assays were performed following addition of a phosphodiesterase inhibitor (3-isobutyl-1-methylxanthine, IBMX; 200μM) using a GloMax-Multi Detection System plate reader (Promega) as described previously.
5-HT7Egran1, sequence (A0A482LU10 entry or part of it): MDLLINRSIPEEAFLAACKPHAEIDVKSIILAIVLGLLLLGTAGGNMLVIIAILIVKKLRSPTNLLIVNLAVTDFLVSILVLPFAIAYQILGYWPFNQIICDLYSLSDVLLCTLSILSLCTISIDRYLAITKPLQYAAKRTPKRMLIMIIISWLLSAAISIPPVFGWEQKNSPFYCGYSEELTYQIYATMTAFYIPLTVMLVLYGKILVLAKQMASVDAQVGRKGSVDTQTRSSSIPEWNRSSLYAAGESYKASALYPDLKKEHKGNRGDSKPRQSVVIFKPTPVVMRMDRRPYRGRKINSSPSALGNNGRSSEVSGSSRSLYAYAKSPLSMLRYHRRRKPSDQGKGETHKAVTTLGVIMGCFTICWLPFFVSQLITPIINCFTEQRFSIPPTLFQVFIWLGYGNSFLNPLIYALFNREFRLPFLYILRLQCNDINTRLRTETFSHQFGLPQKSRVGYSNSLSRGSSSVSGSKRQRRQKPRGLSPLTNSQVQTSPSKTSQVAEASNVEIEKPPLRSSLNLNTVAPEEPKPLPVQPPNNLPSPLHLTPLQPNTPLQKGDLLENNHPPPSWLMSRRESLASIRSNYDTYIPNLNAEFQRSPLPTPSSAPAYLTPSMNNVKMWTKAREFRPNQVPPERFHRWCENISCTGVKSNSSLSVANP
On the technique in general: Changes in cAMP serve as a functional read-out for many G protein-coupled receptors.

In data set [2] the target is 5-HT7Egran2 (Echinococcus canadensis, UniProt A0A482LXK0). Description: cell-based. Format: cell-based, Echinococcus granulosus. As for the experimental part:
as §1

Data set [3] deals with 5-HT7Mco1 (Mesocestoides corti, UniProt A0A482LRJ4). Put plainly: cell-based. In kind it is cell-based. As for the experimental part: as §1
5-HT7Mco1, sequence (A0A482LRJ4 entry or part of it): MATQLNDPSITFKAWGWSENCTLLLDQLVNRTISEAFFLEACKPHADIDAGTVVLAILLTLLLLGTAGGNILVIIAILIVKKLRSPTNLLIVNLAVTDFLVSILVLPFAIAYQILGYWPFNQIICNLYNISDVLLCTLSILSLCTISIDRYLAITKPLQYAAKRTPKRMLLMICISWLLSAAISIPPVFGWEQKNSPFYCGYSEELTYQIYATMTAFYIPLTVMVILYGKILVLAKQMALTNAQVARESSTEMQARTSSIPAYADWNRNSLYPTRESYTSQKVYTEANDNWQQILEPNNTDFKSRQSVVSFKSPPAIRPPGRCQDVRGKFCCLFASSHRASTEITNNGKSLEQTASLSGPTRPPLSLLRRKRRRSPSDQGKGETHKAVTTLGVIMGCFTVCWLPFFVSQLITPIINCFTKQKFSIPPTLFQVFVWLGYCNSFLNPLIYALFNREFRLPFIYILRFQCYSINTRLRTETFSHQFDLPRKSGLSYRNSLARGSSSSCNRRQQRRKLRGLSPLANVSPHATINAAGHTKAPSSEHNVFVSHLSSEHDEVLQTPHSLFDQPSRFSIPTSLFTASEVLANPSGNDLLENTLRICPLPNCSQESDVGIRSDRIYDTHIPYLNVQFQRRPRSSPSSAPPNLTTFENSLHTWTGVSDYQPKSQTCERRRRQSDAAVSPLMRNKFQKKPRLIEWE
Data set [4] has as its system Mesocestoides corti tetrathyridia. Description: Motility index of tetrathyridia, WMicrotracker (light scattering). As to the method: For the motility index measurement, the method of Camicia et al. was followed with minor modifications. In the case of E. granulosus, protoscoleces were mantained in RPMI medium with high glucose (Gibco, USA) with 50 μg/ml of gentamicin for no more than 48 hours in order to avoid the potential differentiation of the protoscolex towards premicrocyst. The day before the experiment the protoscoleces were transferred to U-shape 96-well microplates (Greiner Bio-One, Germany) with approximately 125 parasites per 100 μl per well. This number of parasites per well was empirically determined as the best number of worms to perform the experiments. Movement was measured as described for C. elegans using a worm tracker device (WMicrotracker Designplus SRL, Argentina) which determines the motility index by the light-microbeam (100 μm wide; k = 880 nm; intensity <1 mW) scattering produced by the movement of parasites. Quantification of the signal was performed by applying a mathematical algorithm previously described for sperm viability determination (Patent number: US4176953, year of submission: 1978, year of publication: 1979).
To study the effect of 5-HT on the motility of M. corti tetrathyridia, only one worm per well was used as this was the empirically determined optimal number. […] M. corti tetrathyridia were used fresh, immediately after the mice was opened. […]

Data set [5] has the same test system. Put plainly: Motility of tetrathyridia by video imaging. The conditions noted are these: period of 30 minutes. As for the experimental part:
In some experiments, alongside to the worm tracker motility analyses, the parasite motor activity was also measured with a digital video camera (Kodak easy share Z915 digital camera) coupled to an inverted microscope (Nikon, model TMS-F). Fresh parasites were processed in the same way as in previous sections in U-shape 96-well microplates, then incubated overnight at 37°C in a 5% CO2 atmosphere and finally video recorded with a digital camera after drug treatment. Images were obtained for a period of 15 seconds and the data were analyzed with ImageJ software (version 1.48, NIH, USA). […] To quantify this type of movements the method of Patocka et al. was followed with some modifications. The videos were transformed to stacks of TIFF images by using the Filmora video editor (Wondershare Filmora, version 8.2.3, downloaded from https://filmora.wondershare.es/) and then imported into ImageJ. First, the stacks were first converted to 8 bit type images. Next, the background was subtracted and then converted to a binary image by threshold adjust. […]
Statistical analyses were carried out using the GraphPad Prism Software package, version 6 for Windows (GraphPad Software, CA, USA). […] For image based assays, pixel changes in control and treatments were calculated and analyzed with one way ANOVA and Dunnett post-test were performed comparing all the concentrations with the control. […]

Data set [6] shares this test system. Set-up: method as in PMID 12003065. As to conditions: 30 minutes of incubation; cited from earlier work.
Data set [7] has as its target human 5-HT1A receptor. Set-up: method as in PMID 24900203. As to conditions: cited from earlier work.

5-HT7Egran2, sequence (A0A482LXK0 entry or part of it): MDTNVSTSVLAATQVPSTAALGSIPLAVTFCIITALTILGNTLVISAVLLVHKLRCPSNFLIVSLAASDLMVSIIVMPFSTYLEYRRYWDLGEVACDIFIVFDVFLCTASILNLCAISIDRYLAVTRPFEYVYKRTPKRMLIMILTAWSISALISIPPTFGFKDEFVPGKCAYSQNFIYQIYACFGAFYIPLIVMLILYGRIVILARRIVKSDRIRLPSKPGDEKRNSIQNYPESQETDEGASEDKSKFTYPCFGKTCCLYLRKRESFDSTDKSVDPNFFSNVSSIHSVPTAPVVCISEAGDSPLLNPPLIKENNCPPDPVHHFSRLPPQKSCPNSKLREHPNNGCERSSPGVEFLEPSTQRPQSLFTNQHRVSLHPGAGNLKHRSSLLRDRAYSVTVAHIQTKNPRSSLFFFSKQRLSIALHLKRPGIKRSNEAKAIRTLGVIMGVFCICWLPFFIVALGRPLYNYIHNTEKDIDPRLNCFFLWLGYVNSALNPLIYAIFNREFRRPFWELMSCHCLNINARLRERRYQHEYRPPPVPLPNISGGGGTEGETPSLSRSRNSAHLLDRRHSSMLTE

As for `NCCc1c[nH]c2ccc(O)cc12` [5-HT, 5-hydroxytryptamine], the concentration for a half-maximal effect (EC50) in data set [1] worked out at 171 ± 57 nM; in data set [2] (HEK-293 cells expressing 5-HT7Egran2, IBMX 200μM, read-out: EC50 for evoked cAMP production), 0.543 ± 0.107 nM; in data set [3], 0.255 ± 0.063 nM. Also, the “fold-change in luminescence signal on addition of 5-HT” value was ~ 20 fold in data set [1] (cells expressing 5-HT7Egran1); ~ 3.3 fold in data set [2] (cells expressing 5-HT7Egran2, basal coupling); ~ 2.5 fold in data set [3] (cells expressing 5-HT7Mco1, basal coupling). Further, the “concentration from which stimulation of motility is observed” value in data set [4] (30 minutes of incubation, light scattering method) is at least 500 µM. Also, the “concentration from which a significant rise of motility is seen” value in data set [4] (period of two hours, WMicrotracker, up to 2000 μM) is at least 100 µM. The “concentration necessary for significant changes in motility” value in data set [5] is 1000 µM. For the same compound, the “concentration previously reported to stimulate tetrathyridia motility” value in data set [6] is reported as 100 nM.

Turning to `CCN(CC)C(=O)[C@@H]1C=C2c3cccc4[nH]cc(c34)C[C@H]2N(C)C1` [LSD, Lysergic acid diethylamide], the EC50 in data set [1] came out at 35 ± 6 nM; in data set [3], 4.4 ± 1 nM. The “pharmacological behaviour (agonist/antagonist, efficacy) in cAMP assay” value in data set [1] is “potently activated”; in data set [2] (5-HT7Egran2), “antagonist”; in data set [3] (5-HT7Mco1), “potently activated”. This compound yielded a concentration for half-maximal inhibition (IC50) in data set [2] of 2.9 ± 0.2 nM.

As for `CN(C)c1cccc2c(S(=O)(=O)NCCCCC34CCCN3C(=O)N(CCCCN3CCN(c5cccc6ccccc56)CC3)C4=O)cccc12` (centres unmarked) [UCM120], the Ki in data set [7] was 2 nM.

As to `CN1C[C@H](C(=O)N[C@]2(C)O[C@@]3(O)[C@@H]4CCCN4C(=O)[C@H](Cc4ccccc4)N3C2=O)C=C2c3cccc4[nH]cc(c34)C[C@H]21` [ergotamine], the EC50 turned out to be 290 ± 49 nM in data set [1], 234 ± 37 nM in data set [2] and 354 ± 62 nM in data set [3]. For the same compound, the figures for the “pharmacological behaviour (agonist/antagonist, efficacy) in cAMP assay” value in data set [1], in data set [2] (5-HT7Egran2) and in data set [3] (5-HT7Mco1) were “low efficacy partial agonist”, “higher efficacy partial agonist” and “higher efficacy partial agonist”, respectively.

On to `NCCc1c[nH]c2ccccc12` [tryptamine], for which the 50% effective concentration (EC50) in data set [2] is around 800 nM; in data set [3], around 1000 nM. Further, the “cAMP response to neurotransmitter (activation)” value is on record as “activator” in data set [2] (10μM, cells expressing 5-HT7Egran2) and “activator” in data set [3] (10μM, cells expressing 5-HT7Mco1). Further, the “sensitivity to tryptamine relative to 5-HT (fold less sensitive)” value in data set [2] (5-HT7Egran2) and in data set [3] (5-HT7Mco1) was “at least 1000 fold” each time.
